{"source": "patent US20120003270A1", "about": "“6-SUBSTITUTED ISOFLAVONOID COMPOUNDS AND USES THEREOF” (priority 2008, published 2012)", "key": {"eNOS": {"tested_on": "eNOS", "experiment": "eNOS mRNA expression in HCAECs (real-time PCR)", "assay_type": "cell-based, human", "conditions": "10 μM, 24 hr", "method": "HCAECs were grown as described above. Because cell viability was less than 100% at 30 and 100 μM, eNOS experiments were conducted at one concentration (10 μM). After incubation, total RNA was extracted using TRI reagent (Sigma, St Louis, Mo., USA), following the manufacturer's protocol. RNA was quantitated and normalized to 100 ng/μl using the SYBR Green II assay (Molecular Probes, Eugene, Oreg., USA) before being reverse transcribed using iScript (Bio-Rad, Hercules, Calif., USA). eNOS (sense 5′-CCATCTACAGCTTTCCGGCGC-3′ and antisense 5′-CTCTGGGGTGGCCTTCAGCA-3′) and 18S (sense 5′-CGGCTACCACATCCAAGGAA-3′ and antisense 5′-GCT GGA ATT ACC GCG GCT-3′) mRNA levels were determined by real-time PCR using iQ SYBR Green Supermix (Bio-Rad) in an iCycler iQ RealTime thermocyler detection system (Bio-Rad Laboratories). The cycling parameters were 95° C. for 30 seconds, 62° C. for 30 seconds, and 72° C. for 30 seconds for 40 cycles, and real-time data was collected at each cycle. There were six replicates."}, "[1]": {"tested_on": "low density lipoprotein (LDL)", "experiment": "Cu2+-induced oxidation of LDL (FOX assay)", "assay_type": "biochemical", "parameters": "lipid peroxide formation: unit not given here", "method": "Blood was collected by venipuncture and plasma separated by centrifugation. LDL was then isolated from plasma using a 4-step sodium chloride density gradient and ultracentrifuged at 200,000 g for 20 hours at 4° C. The collect LDL was purified by passage through gel filtration PD10 column to remove excess salt and EDTA, and stored in the dark at 4° C. to prevent auto-oxidation and used with two weeks of isolation. The LDL cholesterol content was measure using a standard enzymatic method and protein concentration determined by the Lowry method using BSA as the standard.\nOn the day of each experiment a 2 mL aliquot of LDL was passed through a second PD10 column and diluted with chelex treated PBS (100 mM) to give a standard protein concentration of 0.1 mg/mL, ie final concentration per reaction. Oxidation reactions were initiated by the addition of freshly prepared Cu^2+ solution, such that the final concentration of CuSO4 was 5 μM. […] The extent of lipoprotein oxidation was determined by measuring the formation of lipid-peroxides on aliquots removed every 30-minute over a 3-hour period. Peroxides were determined at each time point by the ferrous oxidation-xylenol orange (FOX) assay using standard hydrogen peroxide curve (5 to 200 μM). Compound (1) was examined in at least two separate experiments performed on separate days."}, "IFN-γ and IL-6": {"tested_on": "IFN-γ and IL-6", "experiment": "Splenocyte cytokine production (ELISA)", "assay_type": "cell-based, mouse", "conditions": "10 μM, 3 day incubation, culture supernatant", "method": "Male Skh-1:HR1 (hairless) mice, approximately six weeks old were killed by cervical dislocation. Single cell suspensions were made from the spleen and erythrocytes were lysed in buffer (0.14M NH4Cl, 17 mM Tris, pH 7.2). The remaining splenocytes were cultured in RPMI-1640 (Gibco) supplemented with 10% (v:v) FBS, 200 mM L-glutamine, penicillin/streptomycin and […] 2-mercaptoethanol. Splenocytes were added to quadruplicate wells containing either concanavalin A (ConA, Sigma-Aldrich—0.4 μg/well), LPS (Sigma-Aldrich—1 μg/well) or no mitogen, as well 10 μM of test compound in DMSO. Samples were analysed after a 3 day incubation at 37° C. in 5% CO2 in air. Methylthiazoletetrazolium (MTT) is bioreduced by viable cells into a coloured formazan product that is soluble in DMSO. Thus the quantity of formazan product is directly proportional to the number of living cells in culture, and can be measured using a spectrophotometer at 570 nm. MTT was added to each well, incubated for a further 4 hrs and then colour developed with 0.04N HCl in isopropanol. Culture supernatants were stored after collection at −80° C. and both T and B cells analysed by ELISA (BD Biosciences) for IFN-γ (a Th-1 cytokine) and for T cells alone, IL-6 (a Th-2 cytokine)."}, "TXA2": {"tested_on": "TXA2", "experiment": "TXA2 synthesis in RA-stimulated U937 cells", "assay_type": "cell-based, human", "conditions": "A23187 0.5 μM, 30 min", "method": "U937 cells were thawed and resuspended in RPMI and 10% FCS at 2×10^5 cells per ml. The cells were incubated in 5% CO2 at 37° C. and expanded in growing culture to at least 6.4×10^7 total cells. The cells were then resuspended in fresh medium and cultured with 5 μM retinoic acid (RA) at 2×10^5 cells per ml for a further 3 days (72 h). RA treated cells were washed 2× in serum-free RPMI and resuspended in serum-free medium at 5×10^6 cells per ml. The cells were aliquotted into Teflon tubes at 1 ml per tube. Working stock solutions of compounds (1) and (3) were prepared at 0.1 mM, 1 mM and 10 mM as described above. For each working dilution, 10 μl was added to 1 ml cells to achieve a final concentration of 0 (DMSO alone), 1, 10, and 100 μM for each test compound. Cells were incubated in triplicate with each concentration of test compound for 15 min at 37° C. After 15 min pre-incubation, each 1 ml tube of cells received 5 μl of a […] solution of the calcium ionophore A23187 (to achieve 0.5 μM A23187). Incubation at 37° C. was continued for a further 30 min. After incubation, supernatants were collected by centrifugation at 2000 rpm for 10 min and stored at −20° C. until required for assay."}}, "note": "pIC50: −log10 of the molar value."}
{"compound": "CN(C)Cc1cc2c(cc1O)OCC(c1ccc(O)cc1)=C2", "note": "[Compound (1)]", "values": [{"measurement": "Average increase in the expression of eNOS", "setting": "eNOS; average of experiments", "value": 45, "unit": "%"}, {"measurement": "Increase in expression of eNOS mRNA relative to control cells", "setting": "eNOS; EXPT 1", "value": "52 ± 25% (0.0001)"}, {"measurement": "Increase in expression of eNOS mRNA relative to control cells", "setting": "eNOS; EXPT 2", "value": "53 ± 49 (0.009)"}, {"measurement": "Increase in expression of eNOS mRNA relative to control cells", "setting": "eNOS; EXPT 3", "value": "30 ± 30 (0.014)"}, {"measurement": "lipid peroxide formation", "setting": "[1]; Compound (1) 100 μM + Cu++ 5 μM, no LDL, 0 min", "value": "10.13 ± 2.82"}, {"measurement": "lipid peroxide formation", "setting": "[1]; Compound (1) 100 μM + Cu++ 5 μM, no LDL, 30 min", "value": "32.09 ± 11.15"}, {"measurement": "lipid peroxide formation", "setting": "[1]; Compound (1) 100 μM + Cu++ 5 μM, no LDL, 60 min", "value": "46.21 ± 20.68"}, {"measurement": "lipid peroxide formation", "setting": "[1]; Compound (1) 100 μM + Cu++ 5 μM, no LDL, 90 min", "value": "58.19 ± 28.98"}, {"measurement": "lipid peroxide formation", "setting": "[1]; Compound (1) 100 μM + Cu++ 5 μM, no LDL, 120 min", "value": "69.46 ± 35.33"}, {"measurement": "lipid peroxide formation", "setting": "[1]; Compound (1) 100 μM + Cu++ 5 μM, no LDL, 180 min", "value": "76.60 ± 40.17"}, {"measurement": "pIC50", "setting": "[1]; LDL 0.1 mg/mL, CuSO4 5 μM, read-out: IC50, concentration at which 50% of the LDL oxidation was inhibited", "value": 6.24}, {"measurement": "lipid peroxide formation", "setting": "[1]; LDL 0.1 mg/ml + compound (1) 0.1 μM + Cu++ 5 μM, 0 min", "value": "11.54 ± 1.96"}, {"measurement": "lipid peroxide formation", "setting": "[1]; LDL 0.1 mg/ml + compound (1) 0.1 μM + Cu++ 5 μM, 30 min", "value": "14.50 ± 0.28"}, {"measurement": "lipid peroxide formation", "setting": "[1]; LDL 0.1 mg/ml + compound (1) 0.1 μM + Cu++ 5 μM, 60 min", "value": "26.86 ± 0.65"}, {"measurement": "lipid peroxide formation", "setting": "[1]; LDL 0.1 mg/ml + compound (1) 0.1 μM + Cu++ 5 μM, 90 min", "value": "89.43 ± 17.03"}, {"measurement": "lipid peroxide formation", "setting": "[1]; LDL 0.1 mg/ml + compound (1) 0.1 μM + Cu++ 5 μM, 120 min", "value": "161.78 ± 1.44"}, {"measurement": "lipid peroxide formation", "setting": "[1]; LDL 0.1 mg/ml + compound (1) 0.1 μM + Cu++ 5 μM, 180 min", "value": "193.20 ± 25.05"}, {"measurement": "lipid peroxide formation", "setting": "[1]; LDL 0.1 mg/ml + compound (1) 1.0 μM + Cu++ 5 μM, 0 min", "value": "11.31 ± 1.95"}, {"measurement": "lipid peroxide formation", "setting": "[1]; LDL 0.1 mg/ml + compound (1) 1.0 μM + Cu++ 5 μM, 30 min", "value": "12.83 ± 2.28"}, {"measurement": "lipid peroxide formation", "setting": "[1]; LDL 0.1 mg/ml + compound (1) 1.0 μM + Cu++ 5 μM, 60 min", "value": "13.11 ± 2.70"}, {"measurement": "lipid peroxide formation", "setting": "[1]; LDL 0.1 mg/ml + compound (1) 1.0 μM + Cu++ 5 μM, 90 min", "value": "14.78 ± 1.06"}, {"measurement": "lipid peroxide formation", "setting": "[1]; LDL 0.1 mg/ml + compound (1) 1.0 μM + Cu++ 5 μM, 120 min", "value": "20.39 ± 2.95"}, {"measurement": "lipid peroxide formation", "setting": "[1]; LDL 0.1 mg/ml + compound (1) 1.0 μM + Cu++ 5 μM, 180 min", "value": "102.30 ± 37.30"}, {"measurement": "lipid peroxide formation", "setting": "[1]; LDL 0.1 mg/ml + compound (1) 10 μM + Cu++ 5 μM, 0 min", "value": "11.54 ± 1.96"}, {"measurement": "lipid peroxide formation", "setting": "[1]; LDL 0.1 mg/ml + compound (1) 10 μM + Cu++ 5 μM, 30 min", "value": "16.77 ± 2.55"}, {"measurement": "lipid peroxide formation", "setting": "[1]; LDL 0.1 mg/ml + compound (1) 10 μM + Cu++ 5 μM, 60 min", "value": "19.56 ± 4.55"}, {"measurement": "lipid peroxide formation", "setting": "[1]; LDL 0.1 mg/ml + compound (1) 10 μM + Cu++ 5 μM, 90 min", "value": "20.84 ± 5.30"}, {"measurement": "lipid peroxide formation", "setting": "[1]; LDL 0.1 mg/ml + compound (1) 10 μM + Cu++ 5 μM, 120 min", "value": "22.80 ± 3.39"}, {"measurement": "lipid peroxide formation", "setting": "[1]; LDL 0.1 mg/ml + compound (1) 10 μM + Cu++ 5 μM, 180 min", "value": "20.30 ± 4.97"}, {"measurement": "lipid peroxide formation", "setting": "[1]; LDL 0.1 mg/ml + compound (1) 100 μM + Cu++ 5 μM, 0 min", "value": "13.83 ± 1.77"}, {"measurement": "lipid peroxide formation", "setting": "[1]; LDL 0.1 mg/ml + compound (1) 100 μM + Cu++ 5 μM, 30 min", "value": "29.71 ± 6.85"}, {"measurement": "lipid peroxide formation", "setting": "[1]; LDL 0.1 mg/ml + compound (1) 100 μM + Cu++ 5 μM, 60 min", "value": "39.57 ± 10.67"}, {"measurement": "lipid peroxide formation", "setting": "[1]; LDL 0.1 mg/ml + compound (1) 100 μM + Cu++ 5 μM, 90 min", "value": "78.85 ± 33.54"}, {"measurement": "lipid peroxide formation", "setting": "[1]; LDL 0.1 mg/ml + compound (1) 100 μM + Cu++ 5 μM, 120 min", "value": "54.24 ± 9.58"}, {"measurement": "lipid peroxide formation", "setting": "[1]; LDL 0.1 mg/ml + compound (1) 100 μM + Cu++ 5 μM, 180 min", "value": "62.50 ± 19.58"}, {"measurement": "Effect on cytokine synthesis (INF-γ, IL-6)", "setting": "IFN-γ and IL-6", "value": "concomitant reduction on the synthesis of INF-γ and IL-6"}, {"measurement": "TXB2", "setting": "TXA2; 1 μM", "value": "35.833 ± 1.866", "unit": "pg"}, {"measurement": "TXB2", "setting": "TXA2; 10 μM", "value": "41.697 ± 2.275", "unit": "pg"}, {"measurement": "TXB2", "setting": "TXA2; 100 μM", "value": "21.708 ± 5.439", "unit": "pg"}]}
